Results as given in patent publication US20260000496A1, “MATERIALS AND METHODS FOR DRUG-INDUCED GINGIVAL OVERGROWTH” (Optimed Technology, Inc., priority 2019, published 2026).

Assays:
LITAF = assay: Mice study #2: LITAF immunostaining of gingival tissue; type: in vivo, C57BL/6 mice
Procedure: Mice study #2: Validation study for preventive and active treatment for DIGO. […] One set of these mice were used as a control disease group (FIG. 23A) while the other group was treated with folic acid (gel and in drinking water) (FIG. 23B). In the prevention and treatment group, folic acid (10 μg/ml) (Sigma-Aldrich, St. Louis MO) was included in the drinking water from the time of suture placement until end of the study (14 days). Additionally, gel applications were repeated daily until the end of the study (14 days). The four groups in this study were: • 1. Control group (n=2): no interventions were performed • 2.
Histopathology and Immunohistochemistry. Mice mandibles were fixed in 10% formaldehyde for overnight at 4° C. on the shaker with 45 rpm and then the solutions were replaced with 70% ethanol. The tissues were decalcified with 10% ethylenediaminetetraacetic acid (EDTA) for 1 week and were dehydrated through graded ethanol, cleared with xylene, and embedded in paraffin. 4 μm serial sections were cut in a buccal-lingual direction and stained with Hematoxylin and Eosin (HE) and observed under light microscopy for histomorphological evaluations.
For immunohistochemistry, unstained sections were deparaffinized in xylene for 10 minutes and then transferred to ethanol for 20 minutes. […]

TLR4 = assay: FACS of surface TLR4 on oral keratinocytes; type: cell-based, human; conditions: LPS (10 μg/ml), Phe (10 μg/ml), different concentration of folic acid, 24 hours
Procedure: (§1) Flow cytometry. NOKSI cells were seeded in 100 mm plates with a density of 1×10^6 cells per plate. Cells were treated with drugs, LPS, and folic acid alone or in combination. After NOKSI were detached using Corning Cell Lifter (Corning) and 10 mM EDTA in PBS, the cells were washed with FACS buffer (PBS containing 1% BSA [Sigma] and 2 mM EDTA). Cells were stained by immunofluorescence for CD282 (TLR2) and CD284 (TLR4). Fluorescent labeled antibodies at a dilution of 1:1000 in staining buffer with 2% FBS in PBS were added and incubated for 30 min in dark on ice. Cells were centrifuged and washed thrice in staining buffer and passed through a 70 μm cell strainer before data acquisition. Data analysis was performed using FlowJo (TreeStar, Ashland, OR, USA). All incubations were performed on ice.
(§2) Oral Keratinocytes Cells were treated with only LPS (10 μg/ml) for 24 hours. […] Cells were treated with LPS (10 μg/ml) and Phe (10 μg/ml) for 24 hours. […] Cells were treated with LPS (10 μg/ml), Phe (10 μg/ml), and FA ([…]) for 24 hours. […] FIG. 16.

TLR2 = assay: FACS of surface TLR2 on oral keratinocytes; type: cell-based, human; conditions: LPS (10 μg/ml), Phe (10 μg/ml), different concentration of folic acid, 24 hours
Procedure: as §1, §2

MyD88 = assay: Western blot of MyD88 in oral keratinocytes; type: cell-based, human
Procedure: Cell Culture. Normal human oral keratinocytes (NOKSI) and fibroblast (HOF) cells were maintained in Dulbecco […] Eagle's medium (Sigma-Aldrich, St. Louis, MO, USA) supplemented with 10% fetal bovine serum (Atlas Bio-logicals, Fort Collins, CO, USA) and 100 units/mL penicillin and 100 μg/mL streptomycin (LifeTechnologies, Carlsbad, CA, USA). Cells were grown in incubator at 37° C. in a humidified chamber with 5% CO2.
Drugs treatment in cell culture. The cells were treated alone or with different combination of lipopolysaccharide, cyclosporine, phenytoin, and folic acid. All of them were purchased from Sigma-Aldrich (St. Louis, MO, USA). Each of them were used from 0 μg/ml to 40 μg/ml and the optimum concentration were found 10 μg/ml.
Western blot analysis. Cells were seeded in 60 mm plates with a density of 5×10^5 cells per plate and washed briefly with Dulbecco's phosphate-buffered saline (Gibco, Waltham, MA, USA). Whole cell lysates were prepared using RIPA lysis buffer containing protease inhibitor cocktail (Sigma-Aldrich). Total protein concentration was determined using the BCA reagent (Pierce, Waltham, MA, USA). 20 μg of total protein were resolved on sodium dodecyl sulfate-polyacrylamide gel electrophoresis and transferred to polyvinylidenedifluoride membrane and immunoblotted. The blots were incubated for 1 h in 1% bovine serum albumin (BSA) (Sigma-Aldrich) to block the non-specific bindings followed by over-night incubation in primary antibodies (MyD88 and pP65 from Cell Signaling Technology, and human LITAF ThermoFisher Sigma) at 4° C. on shaker. Next day, blots were washed for three times (10 min each) in Tris-buffered saline containing 1% Tween20 (TBST) followed by incubation with secondary antibody (Goat anti-rabbit IgG HRP) with 1:10,000 dilution for 1 h. Following washes, bands were visualized using gel documentation Imaging Systems (BioRad). The band intensities were quantified using software ImageJ (NIH, USA) and relative protein levels were normalized by β-actin (Cell Signaling). To perform the western blot of animal tissue samples, the gingival tissues were collected from both BABLB/c and C57BL/6 mice studies. The soft tissues were separated from the mandibular bone and then crunched. The Bradford assay was performed to measure the protein concentration of each sample. After normalization, 20 μg of whole tissue protein lysate were proceeded for western blot analysis.

SMILES: Nc1nc2ncc(CNc3ccc(C(=O)N[C@@H](CCC(=O)O)C(=O)O)cc3)nc2c(=O)[nH]1 [folic acid]
- epithelial LITAF expression, disease group relative to folic acid-treated group (LITAF): higher in the disease group and uniformly distributed compared to the control and treated groups
- TLR4 receptor on the cell surface (TLR4): do not alter
- TLR2 receptor on the cell surface (TLR2): do not alter
- MyD88 protein level (MyD88; LPS, CSA, FA each 10 μg/ml, 24 hours): inhibits CSA-induced expression
- amount of MYD88 protein (MyD88; LPS, Phe, FA each 10 μg/ml, 24 hours): MyD88 expression is reduced
- MyD88 by western blot, dose-dependent effects of FA (MyD88; different concentration of folic acid, 24 hrs): inhibition of MyD88
- MyD88 by western blot, kinetics of downregulation (MyD88; different time points, FA 10 μg/ml): inhibition of MyD88
- MyD88 by western blot (MyD88; normal oral keratinocyte cells, FIG. 35): downregulation
